Data as given in ChEMBL document CHEMBL5260813, “An overview on the recent developments of 1,2,4-triazine derivatives as anticancer compounds” (Eur J Med Chem, 2017).
≈ marks a conversion by molar mass, not a printed value.

What was measured:
MDA-MB-468 = assay: Antiproliferative activity against human MDA-MB-468 cells assessed as reduction in cell viability; format: functional
NCI-H460 = assay: Antiproliferative activity against human NCI-H460 cells assessed as inhibition of cell growth; format: functional, cell-based
SF-268 [1] = assay: Antiproliferative activity against human SF-268 cells assessed as inhibition of cell growth; format: functional, cell-based
MCF7 [2] = assay: Antiproliferative activity against human MCF7 cells assessed as inhibition of cell growth; format: functional, cell-based
KB = assay: Antiproliferative activity against human KB cells assessed as inhibition of cell growth under hypoxia condition; format: functional, cell-based
K562 [3] = assay: Induction of apoptosis in human K562 cells assessed as increase in apoptotic cells under hypoxia condition relative to control; format: functional
K562 [4] = assay: Induction of apoptosis in human K562 cells assessed as increase in apoptotic cells under normoxia condition relative to control; format: functional
MDA-MB-231 [5] = assay: Antiproliferative activity against human MDA-MB-231 cells assessed as inhibition of cell growth by MTT assay; format: functional, cell-based
MCF7 [6] = assay: Antiproliferative activity against human MCF7 cells assessed as inhibition of cell growth by [3H]thymidine incorporation assay; format: functional, cell-based
MDA-MB-231 [7] = assay: Antiproliferative activity against human MDA-MB-231 cells assessed as inhibition of cell growth by [3H]thymidine incorporation assay; format: functional, cell-based
MCF7 [8] = assay: Antiproliferative activity against human MCF7 cells assessed as inhibition of cell growth by MTT assay; format: functional, cell-based
HCT-116 = assay: Antiproliferative activity against human HCT-116 cells assessed as inhibition of cell growth by MTT assay; format: functional, cell-based
HepG2 = assay: Antiproliferative activity against human HepG2 cells assessed as cell growth inhibition by MTT assay; format: functional, cell-based
[9] = molecular target: Cyclin-dependent kinase 2/cyclin E1 (Homo sapiens, UniProt P24941); assay: Inhibition of CDK2/cyclin E1 (unknown origin) expressed in Sf9 cells
MCF7 [10] = assay: Cytotoxicity against human MCF7 cells assessed as inhibition of cell growth incubated for 72 hrs by MTT assay; format: functional, cell-based; settings: MCF7, 72 h
[11] = Cytotoxicity against human CEM cells assessed as inhibition of cell growth incubated for 72 hrs by MTT assay; format: toxicity, cell-based; settings: CEM (CCRF-CEM) cells, pooled result: one value given for 5 cell lines, strains, targets or settings
[12] = tested on: Panel NCI-60 (60 carcinoma cell lines); assay: Antiproliferative activity against human Panel NCI-60 (60 carcinoma cell lines) cells assessed as inhibition of cell growth; format: functional, cell-based
OVCAR-4 = assay: Antiproliferative activity against human OVCAR-4 cells assessed as cell growth inhibition; format: functional, cell-based
SF-268 [13] = assay: Antiproliferative activity against human SF-268 cells assessed as inhibition of cell growth at 100 uM relative to control; format: functional
MCF7 [14] = assay: Antiproliferative activity against human MCF7 cells assessed as inhibition of cell growth at 100 uM relative to control; format: functional
[15] = molecular target: Glutaminase kidney isoform, mitochondrial (Homo sapiens, UniProt O94925); assay: Inhibition of GLS in human PC-3 cells using glutamine as substrate by amplex red staining-based horseradish peroxidase/glutamate oxidase coupled assay; format: cell-based
Chain of Glutaminase kidney isoform, mitochondrial (O94925 whole entry, canonical isoform): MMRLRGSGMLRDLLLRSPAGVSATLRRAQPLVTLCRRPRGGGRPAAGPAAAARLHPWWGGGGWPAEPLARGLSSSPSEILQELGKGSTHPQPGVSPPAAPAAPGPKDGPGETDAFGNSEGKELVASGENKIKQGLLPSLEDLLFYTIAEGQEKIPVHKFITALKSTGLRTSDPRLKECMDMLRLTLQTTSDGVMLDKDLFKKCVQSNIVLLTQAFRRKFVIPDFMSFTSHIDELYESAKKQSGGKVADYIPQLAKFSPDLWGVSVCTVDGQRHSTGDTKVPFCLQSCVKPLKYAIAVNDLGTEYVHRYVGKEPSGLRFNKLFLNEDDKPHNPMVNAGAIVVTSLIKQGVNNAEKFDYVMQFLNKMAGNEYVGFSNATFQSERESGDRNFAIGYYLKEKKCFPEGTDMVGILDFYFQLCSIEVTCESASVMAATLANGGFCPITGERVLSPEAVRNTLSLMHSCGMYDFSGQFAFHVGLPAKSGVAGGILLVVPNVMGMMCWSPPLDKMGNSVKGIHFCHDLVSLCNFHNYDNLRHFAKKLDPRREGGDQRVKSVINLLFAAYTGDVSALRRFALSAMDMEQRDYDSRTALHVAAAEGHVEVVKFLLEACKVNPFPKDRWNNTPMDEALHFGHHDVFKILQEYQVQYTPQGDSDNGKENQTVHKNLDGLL

Structure (SMILES): CC(C)c1ccc(-c2nn3nnc4ccccc4c3nc2=O)cc1
- GI50 (MDA-MB-468): 0.41 µM

Structure (SMILES): Cc1ccc(C2=NN=C(/C(C#N)=N/Nc3sc4c(c3C#N)CCCC4)N(Nc3ccccc3)C2)cc1
- IC50 (NCI-H460): 6.8 µM
- IC50 (SF-268 [1]): 8.3 µM
- IC50 (MCF7 [2]): 12.4 µM

Structure (SMILES): COc1ccc(COCNc2n[n+]([O-])c3ccccc3[n+]2[O-])cc1
- IC50 (KB): 3.32 µM
- Activity (K562 [3]): 33.07%
- Activity (K562 [4]): 14.13%

Structure (SMILES): c1ccc(-c2cc(SN3CCCC3)nnc2-c2ccccc2)cc1
- IC50 (MDA-MB-231 [5]): 25 µM
- IC50 (MCF7 [6]): 15 µM
- IC50 (MDA-MB-231 [7]): 40 µM
- IC50 (MCF7 [8]): 30 µM

Structure (SMILES): [O-][n+]1nc(NCOCc2ccc(C(F)(F)F)cc2)[n+]([O-])c2ccccc21
- IC50 (KB): 4.27 µM
- Activity (K562 [3]): 54.24%
- Activity (K562 [4]): 14.95%

Structure (SMILES): O=c1[nH]n2c(=O)c(/C=C/c3cccs3)nnc2s1
- IC50 (HCT-116): 8.34 µg/mL (≈ 30 µM)
- IC50 (MCF7 [8]): 8.34 µg/mL
- IC50 (HepG2): 8.34 µg/mL (≈ 30 µM)

Structure (SMILES): Oc1cc(-c2nn(-c3cc(O)c(O)c(O)c3)c3nnc(-c4ccc(Cl)cc4)nc23)cc(O)c1O
- IC50 [9]: 11 µM
- IC50 (MCF7 [10]): 0.77 µM
- IC50 at 72 h [11]: 0.77 µM

Structure (SMILES): Cc1c(C#N)c2nnc(C(N)=O)c(N)n2c1-c1ccccc1
- IC50 [12]: 3.34 µM
- IC50 (OVCAR-4): 2.77 µM

Structure (SMILES): CC(=O)OC[C@H]1O[C@@H](n2nc(Cc3ccccc3)c(=S)n(N)c2=S)[C@H](OC(C)=O)[C@@H](OC(C)=O)[C@H]1OC(C)=O
- inhibition at 100 µM (SF-268 [13]): 38%
- inhibition at 100 µM (MCF7 [14]): 15%

Structure (SMILES): Oc1cccc(-n2nc(-c3cc(O)c(O)c(O)c3)c3nc(-c4ccc(Cl)cc4)nnc32)c1
- IC50 [9]: 17.3 µM
- IC50 (MCF7 [10]): 1.9 µM
- IC50 at 72 h [11]: 1.9 µM

Structure (SMILES): c1ccc(-c2nnc(SSc3nnc(-c4ccccc4)c(-c4ccccc4)n3)nc2-c2ccccc2)cc1
- IC50 (MDA-MB-231 [5]): 25 µM
- IC50 (MCF7 [6]): 35 µM
- IC50 (MDA-MB-231 [7]): 39 µM
- IC50 (MCF7 [8]): 25 µM

Structure (SMILES): COC(C(=O)Cc1cnc(NC2CCN(c3cncnn3)C2)s1)c1cccc(OC(F)(F)F)c1 (configuration not stated)
- IC50 [15]: 0.043 µM
